{
  "source": "patent US20140030368A1",
  "about": "“COMPOSITION FOR PREVENTING OR TREATING A RESPIRATORY DISEASE CONTAINING A MIXED HERBAL EXTRACT OF CNIDIUM OFFICINALE ROOT AND POLYGONI CUSPIDATI ROOT” (WHANIN PHARMACEUTICAL CO., LTD., priority 2011, published 2014)",
  "type_in_all_cases": "in vivo, mice",
  "key": {"IFN-γ (interferon-γ)": {"system": "IFN-γ (interferon-γ)", "assay": "T cell-derived cytokine from lung tissue, LPS-induced asthma/COPD model (ELISA)", "conditions": "ovalbumin + LPS model", "protocol": "(§1) In order to examine whether the extract of the present invention has the effect of inhibiting T cell-derived cytokine isolated from the lung tissue of an LPS-derived asthma/chronic obstructive pulmonary disease model, the following test was performed.\n(§2) Specifically, the LPS-induced asthma/chronic obstructive pulmonary disease model was prepared by treatment with each of the extract of Example 2 and a comparative drug in the same manner as described in Test Example 7-1. At 6 hours after the final challenge, the mice were anesthetized by intraperitoneal injection with ketamine and xylazine, and lung tissue was obtained from the mice. The lung tissue was cut finely with a blade and incubated with 5 ml of 1× Trypsin-EDTA and 1000 units of chollagenase at 37° C. for 10 minutes. Then, the tissue was passed through a 100 μm mesh to collect only immune cells. To stimulate T cells among the collected cells, 1×10^5 cells and anti-CD28 (1 μg/ml) were added to a 96-well plate coated with anti-CD3 (1 μg/ml) and were incubated in an incubator at 37° C. for 12 hours. Next, the supernatant was collected, and the amounts of the cytokines IL-17 (interleukin 17) and IFN-γ (interferon-γ) in the supernatant were measured using an ELISA (enzyme-linked immunosorbent assay)."}, "IL-17 (interleukin 17)": {"system": "IL-17 (interleukin 17)", "assay": "T cell-derived cytokine from lung tissue, LPS-induced asthma/COPD model (ELISA)", "conditions": "ovalbumin + LPS model", "protocol": "as §1, §2"}, "[1]": {"system": "inflammatory cells in pulmonary bronchoalveolar lavage", "assay": "Inflammatory cells in pulmonary bronchoalveolar lavage, E. coli-EV-induced asthma/COPD model", "protocol": "Whether the extract of the present invention has the effect of inhibiting pulmonary bronchial inflammation in an E. coli-EV-induced asthma/chronic obstructive pulmonary disease model was evaluated.\nSpecifically, a mixture of 10 ng of E. coli-EV and PBS was intranasally administered a total of four times (days 0, 1, 2 and 7) into C57BL/6 male mice (6 weeks old; provided from the Animal Laboratory in Biotech Center, Pohang University of Science & Technology) to sensitize the mice. At 14, 15, 21 and 22 days from the first sensitization date, 10 ng of E. coli-EV was challenged into the nasal cavity to induce asthma and chronic obstructive pulmonary disease. In addition, at 14, 15, 21 and 22 days at which the challenge was performed, each of 1.0% CMC, 100, 200 and 400 mg/10 ml/kg of the extract of Example 2, 1 mg/10 ml/kg of the comparative drug dexamethason and 10 mg/10 ml/kg of the comparative drug montelukast was orally administered twice a day. At 48 hours after the final challenge, the mice were anesthetized by intraperitoneal administration of ketamine and xylazine, and the organ of the mice was exposed and a catheter was inserted therein. Then, the bronchoalveoli were laved with each of 0.8 and 0.7 ml of sterile phosphate buffered saline to obtain a bronchoalveolar lavage The bronchoalveolar lavage was centrifuged at 4° C. at 1000 rpm for 5 minutes, and the supernatant was removed. 2 ml of 10% FBS-IMDM (fetal bovine serum—Iscove's Modified Dulbecco's Medium) was added to the cells which were then counted. Then, the cells were cytospun, plated on a slide, and Diff-Quick stained. At least 300 inflammatory cells were observed by the staining method and classified into eosinophils, macrophages, neutrophils and lymphocytes, and the cell numbers of the groups treated with dexamethason, montelukast and the extract of Example 2 were compared with the ratios of inflammatory cells in the pulmonary bronchoalveolar lavages of the negative control group and the positive control group, thereby evaluating the inhibitory effects of the test materials against airway inflammation."}, "[2]": {"system": "MCP-1 (monocyte chemoattractant protein-1)", "assay": "Inflammatory mediator in bronchoalveolar lavage, E. coli-EV-induced model (ELISA)", "protocol": "(§3) The expression patterns of the inflammatory mediators MCP-1 (monocyte chemoattractant protein-1) and MIP-1α (macrophage inflammatory protein-1α) in the bronchoalveolar lavage obtained in Test Example 8-1 were measured using an ELISA assay, and the results of the measurement are shown in Table 14 below."}, "[3]": {"system": "MIP-1α (macrophage inflammatory protein-1α)", "assay": "Inflammatory mediator in bronchoalveolar lavage, E. coli-EV-induced model (ELISA)", "protocol": "as §3"}, "[4]": {"system": "anti-E. coli-EV-specific IgG1", "assay": "Antigen-specific antibody in serum, E. coli-EV-induced model (ELISA)", "protocol": "(§4) In order to examine whether the extract of the present invention has the ability to produce an antigen-specific antibody in an E. coli-EV-induced asthma/chronic obstructive pulmonary disease model, the E. coli-EV-induced asthma/chronic obstructive pulmonary disease model was prepared by treatment with each of the extract of Example 2 and a comparative drug in the same manner as described in Test Example 8-1. At 48 hours after the final challenge, the mice were anesthetized by intraperitoneal injection with ketamine and xylazine. Then, blood was collected from the heart using a 1 ml syringe, and serum was separated from the blood by centrifugation. Then, anti-E. coli-EV-specific IgG1 and IgG2a antibodies in the serum were measured according to an ELISA assay, and the results of the measurement are shown in Table 15 below."}, "[5]": {"system": "anti-E. coli-EV-specific IgG2a", "assay": "Antigen-specific antibody in serum, E. coli-EV-induced model (ELISA)", "protocol": "as §4"}, "IFN-γ": {"system": "IFN-γ", "assay": "T cell-derived cytokine from lung tissue, E. coli-EV-induced model (ELISA)", "protocol": "(§5) In order to examine whether the extract of the present invention has the effect of inhibiting T cell-derived cytokine isolated from the lung tissue of an E. coli-EV-derived asthma/chronic obstructive pulmonary disease model, the following test was performed.\n(§6) Specifically, the […] asthma/chronic obstructive pulmonary disease model was prepared by treatment with each of the extract of Example 2 and a comparative drug in the same manner as described in Test Example 8-1. At 6 hours after the final challenge, the mice were anesthetized by intraperitoneal injection with ketamine and xylazine, and lung tissue was obtained from the mice. The lung tissue was cut finely with a blade and incubated with 5 ml of 1× Trypsin-EDTA and 1000 units of chollagenase at 37 °C for 10 minutes. Then, the tissue was passed through a 100 μm mesh to collect only immune cells. To stimulate T cells among the collected cells, 1×10^5 cells and anti-CD28 (1 μg/ml) were added to a 96-well plate coated with anti-CD3 (1 μg/ml) and were incubated in an incubator at 37° C. for 12 hours. Next, the supernatant was collected, and the amounts of cytokines in the supernatant were measured using an ELISA assay."}, "IL-17": {"system": "IL-17", "assay": "T cell-derived cytokine from lung tissue, E. coli-EV-induced model (ELISA)", "protocol": "as §5, §6"}},
  "data": [
    {"smiles": "C[C@@H]1C[C@H]2[C@@H]3CCC4=CC(=O)C=C[C@]4(C)[C@@]3(F)[C@@H](O)C[C@]2(C)[C@@]1(O)C(=O)CO", "note": "[Dexamethason, dexamethason]", "values": [
      {"measurement": "IFN-γ inhibition rate (%)", "setting": "IFN-γ (interferon-γ); 1 mg/kg b.i.d.", "result": 15.19, "unit": "%"},
      {"measurement": "IL-17 inhibition rate (%)", "setting": "IL-17 (interleukin 17); 1 mg/kg b.i.d.", "result": 23.12, "unit": "%"},
      {"measurement": "Inhibition rate(%) Eosinophils", "setting": "[1]; 1 mg/kg b.i.d.", "result": 1.1, "unit": "%"},
      {"measurement": "Inhibition rate(%) Macrophages", "setting": "[1]; 1 mg/kg b.i.d.", "result": 24.7, "unit": "%"},
      {"measurement": "Inhibition rate(%) Total cells", "setting": "[1]; 1 mg/kg b.i.d.", "result": 9.2, "unit": "%"},
      {"measurement": "Inhibition rate(%) MCP-1", "setting": "[2]; 1 mg/kg b.i.d.", "result": 1.2, "unit": "%"},
      {"measurement": "Inhibition rate(%) MIP-1α", "setting": "[3]; 1 mg/kg b.i.d.", "result": 8.3, "unit": "%"},
      {"measurement": "Inhibition rate(%) IgG1", "setting": "[4]; 1 mg/kg b.i.d.", "result": 93.8, "unit": "%"},
      {"measurement": "Inhibition rate(%) IgG2a", "setting": "[5]; 1 mg/kg b.i.d.", "result": 55.7, "unit": "%"},
      {"measurement": "IFN-γ inhibition rate (%)", "setting": "IFN-γ; 1 mg/kg b.i.d.", "result": 1.13, "unit": "%"},
      {"measurement": "IL-17 inhibition rate (%)", "setting": "IL-17; 1 mg/kg b.i.d.", "result": 1.12, "unit": "%"}
    ]},
    {"smiles": "CC(C)(O)c1ccccc1CC[C@@H](SCC1(CC(=O)O)CC1)c1cccc(/C=C/c2ccc3ccc(Cl)cc3n2)c1", "note": "[montelukast]", "values": [
      {"measurement": "IFN-γ inhibition rate (%)", "setting": "IFN-γ (interferon-γ); 10 mg/kg b.i.d.", "result": 14.50, "unit": "%"},
      {"measurement": "IL-17 inhibition rate (%)", "setting": "IL-17 (interleukin 17); 10 mg/kg b.i.d.", "result": 68.42, "unit": "%"},
      {"measurement": "Inhibition rate(%) Eosinophils", "setting": "[1]; 10 mg/kg b.i.d.", "result": 15.4, "unit": "%"},
      {"measurement": "Inhibition rate(%) Macrophages", "setting": "[1]; 10 mg/kg b.i.d.", "result": 1.3, "unit": "%"},
      {"measurement": "Inhibition rate(%) Total cells", "setting": "[1]; 10 mg/kg b.i.d.", "result": 1.2, "unit": "%"},
      {"measurement": "Inhibition rate(%) MCP-1", "setting": "[2]; 10 mg/kg b.i.d.", "result": 11.5, "unit": "%"},
      {"measurement": "Inhibition rate(%) MIP-1α", "setting": "[3]; 10 mg/kg b.i.d.", "result": 4.2, "unit": "%"},
      {"measurement": "Inhibition rate(%) IgG1", "setting": "[4]; 10 mg/kg b.i.d.", "result": 59.7, "unit": "%"},
      {"measurement": "Inhibition rate(%) IgG2a", "setting": "[5]; 10 mg/kg b.i.d.", "result": 27.2, "unit": "%"},
      {"measurement": "IFN-γ inhibition rate (%)", "setting": "IFN-γ; 10 mg/kg b.i.d.", "result": 0.23, "unit": "%"},
      {"measurement": "IL-17 inhibition rate (%)", "setting": "IL-17; 10 mg/kg b.i.d.", "result": 0.22, "unit": "%"}
    ]}
  ]
}
